Assays:
rice flat sedge = test: Test Example 3: herbicidal effect by foliage application, Wagner pot (Table 18, symbol E); format: in vivo, rice flat sedge (Cyperus iria); conditions: 320 g/ha
In short: (§1)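 Plants were sown in alluvial soil held under 0.1–0.5 cm standing water and grown 14 days in a greenhouse at 25–30 °C. An emulsifiable formulation, water-diluted to the set dose, was then sprayed onto the foliage, and effects were scored three weeks later using previously defined criteria.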

chickweed = test: Test Example 5: herbicidal effect by foliage application, plastic box (Table 20, symbol P); format: in vivo, common chickweed (Stellaria media); conditions: for Herbicidal effect by foliage application, P: chickweed: amount of applied herbicide 320 g/ha, foliage application after 14-day growth, evaluated three weeks after application
In short: (§2)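 Plants were sown into sterilized diluvial soil under about 1.5 cm cover and kept in a greenhouse at 25° C. to 30° C. Fourteen days on, foliage received an even spray of the diluted emulsion. Herbicidal or crop effect was judged three weeks afterwards.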

velvetleaf = test: Test Example 5: herbicidal effect by foliage application, plastic box (Table 20, symbol M); format: in vivo, velvetleaf (Abutilon theophrasti); conditions: for Herbicidal effect by foliage application, M: velvetleaf: amount of applied herbicide 320 g/ha, foliage application after 14-day growth, evaluated three weeks after application
In short: as §2

barnyard grass [1] = test: Test Example 3: herbicidal effect by foliage application, Wagner pot (Table 18, symbol H); format: in vivo, barnyard grass (Echinochloa crus-galli); conditions: 320 g/ha
In short: as §1

redroot pigweed [2] = test: Test Example 5: herbicidal effect by foliage application, plastic box (Table 20, symbol N); format: in vivo, redroot pigweed (Amaranthus retroflexus); conditions: for Herbicidal effect by foliage application, N: redroot pigweed: amount of applied herbicide 320 g/ha, foliage application after 14-day growth, evaluated three weeks after application
In short: as §2

wild oat [3] = test: Test Example 5: herbicidal effect by foliage application, plastic box (Table 20, symbol I); format: in vivo, wild oat (Avena fatua); conditions: for Herbicidal effect by foliage application, I: wild oat: amount of applied herbicide 320 g/ha, foliage application after 14-day growth, evaluated three weeks after application
In short: as §2

Italian ryegrass [4] = test: Test Example 4: herbicidal effect by soil treatment (Table 19, symbol K); format: in vivo, Italian ryegrass (Lolium multiflorum); conditions: amount of applied herbicide 320 g/ha
From the text: (§3) [Test Example 4] Herbicidal Effect Test by Soil Treatment
(§4) Sterilized diluvial soil was placed in a plastic box having a length of 21 cm, a width of 13 cm, and a depth of 7 cm. The seeds of each of southern crabgrass, green foxtail, barnyard grass, wild oat, blackgrass, Italian ryegrass, windgrass, velvetleaf, redroot pigweed, lambsquarters, chickweed, false cleavers, persian speedwell, corn, soybean, rice, wheat, beet, and rapeseed were sowed in a spot-like manner and covered with the soil having a thickness of about 1.5 cm. Subsequently, the emulsion agent of the compound of the present invention prepared according to Formulation Example 2 was diluted with water so as to achieve a predetermined herbicide amount, and the diluted emulsion agent was uniformly applied to the surface of the soil with a small-sized spray. The plastic box was placed in a greenhouse at 25° C. to 30° C. for growth of the plants. Three weeks after the herbicide application, the effect of the herbicide on each plant was evaluated according to the criteria of Test Example 1.

lambsquarters = test: Test Example 5: herbicidal effect by foliage application, plastic box (Table 20, symbol O); format: in vivo, lambsquarters (Chenopodium album); conditions: for Herbicidal effect by foliage application, O: lambsquarters: amount of applied herbicide 320 g/ha, foliage application after 14-day growth, evaluated three weeks after application
In short: as §2

blackgrass = test: Test Example 5: herbicidal effect by foliage application, plastic box (Table 20, symbol J); format: in vivo, blackgrass (Alopecurus myosuroides); conditions: for Herbicidal effect by foliage application, J: blackgrass: amount of applied herbicide 320 g/ha, foliage application after 14-day growth, evaluated three weeks after application
In short: as §2

wild oat [5] = test: Test Example 4: herbicidal effect by soil treatment (Table 19, symbol I); format: in vivo, wild oat (Avena fatua); conditions: amount of applied herbicide 320 g/ha
From the text: as §3, §4

barnyard grass [6] = test: Test Example 5: herbicidal effect by foliage application, plastic box (Table 20, symbol H); format: in vivo, barnyard grass (Echinochloa crus-galli); conditions: for Herbicidal effect by foliage application, H: barnyard grass: amount of applied herbicide 320 g/ha, foliage application after 14-day growth, evaluated three weeks after application
In short: as §2

Italian ryegrass [7] = test: Test Example 5: herbicidal effect by foliage application, plastic box (Table 20, symbol K); format: in vivo, Italian ryegrass (Lolium multiflorum); conditions: for Herbicidal effect by foliage application, K: Italian ryegrass: amount of applied herbicide 320 g/ha, foliage application after 14-day growth, evaluated three weeks after application
In short: as §2

green foxtail = test: Test Example 5: herbicidal effect by foliage application, plastic box (Table 20, symbol G); format: in vivo, green foxtail (Setaria viridis); conditions: for Herbicidal effect by foliage application, G: green foxtail: amount of applied herbicide 320 g/ha, foliage application after 14-day growth, evaluated three weeks after application
In short: as §2

persian speedwell = test: Test Example 5: herbicidal effect by foliage application, plastic box (Table 20, symbol R); format: in vivo, Persian speedwell (Veronica persica); conditions: for Herbicidal effect by foliage application, R: persian speedwell: amount of applied herbicide 320 g/ha, foliage application after 14-day growth, evaluated three weeks after application
In short: as §2

southern crabgrass = test: Test Example 5: herbicidal effect by foliage application, plastic box (Table 20, symbol F); format: in vivo, southern crabgrass (Digitaria ciliaris); conditions: for Herbicidal effect by foliage application, F: southern crabgrass: amount of applied herbicide 320 g/ha, foliage application after 14-day growth, evaluated three weeks after application
In short: as §2

redroot pigweed [8] = test: Test Example 4: herbicidal effect by soil treatment (Table 19, symbol N); format: in vivo, redroot pigweed (Amaranthus retroflexus); conditions: amount of applied herbicide 320 g/ha
In short: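 Pre-emergence style soil spray: seeds under ~1.5 cm sterilized diluvial soil received a uniform coat of emulsion diluted to the predetermined herbicide amount. Greenhouse 25–30° C; readout at week three on previously defined criteria.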

windgrass = test: Test Example 5: herbicidal effect by foliage application, plastic box (Table 20, symbol L); format: in vivo, windgrass (Apera spica-venti); conditions: for Herbicidal effect by foliage application, L: windgrass: amount of applied herbicide 320 g/ha, foliage application after 14-day growth, evaluated three weeks after application
In short: as §2

Chinese sprangletop = test: Test Example 3: herbicidal effect by foliage application, Wagner pot (Table 18, symbol D); format: in vivo, chinese sprangletop (Leptochloa chinensis); conditions: 320 g/ha
In short: as §1

[9] = foliage application, 320 g/ha, three weeks after application

Row | Structure (SMILES) | herbicidal effect on rice flat sedge (E) (rice flat sedge) | Herbicidal effect by foliage application, P: chickweed (chickweed) | Herbicidal effect by foliage application, M: velvetleaf (velvetleaf) | herbicidal effect on barnyard grass (H) (barnyard grass [1]) | Herbicidal effect by foliage application, N: redroot pigweed (redroot pigweed [2]) | Herbicidal effect by foliage application, I: wild oat (wild oat [3]) | Herbicidal effect by foliage application, O: lambsquarters (lambsquarters) | Herbicidal effect by foliage application, J: blackgrass (blackgrass) | Herbicidal effect by foliage application, H: barnyard grass (barnyard grass [6]) | Herbicidal effect by foliage application, K: Italian ryegrass (Italian ryegrass [7]) | Herbicidal effect by foliage application, G: green foxtail (green foxtail) | Herbicidal effect by foliage application, R: persian speedwell (persian speedwell) | Herbicidal effect by foliage application, F: southern crabgrass (southern crabgrass) | Herbicidal effect by foliage application, L: windgrass (windgrass) | herbicidal effect on Chinese sprangletop (D) (Chinese sprangletop) | other results
1 | Cc1nn(C)c(=O)c(-c2c(-c3ccc(OC(F)(F)F)cc3)sc3ccccc23)c1O [1-031] |  |  |  |  |  |  |  |  |  |  |  |  |  |  |  | herbicidal effect on E (rice flat sedge), rating 0-5 (rice flat sedge): 5 (Herbicidal rate of 90% or more (almost completely withered)); herbicidal effect grade, P: chickweed (chickweed; [9]): 5 (Herbicidal rate of 90% or more (almost completely withered)); herbicidal effect grade, M: velvetleaf (velvetleaf; [9]): 5 (Herbicidal rate of 90% or more (almost completely withered)); herbicidal effect on H (barnyard grass), rating 0-5 (barnyard grass [1]): 4 (Herbicidal rate of 70% or more and less than 90%); herbicidal effect grade, N: redroot pigweed (redroot pigweed [2]; [9]): 5 (Herbicidal rate of 90% or more (almost completely withered)); herbicidal effect grade, I: wild oat (wild oat [3]; [9]): 0 (Herbicidal rate of 5% or less (almost no effect)); herbicidal effect rating, K: Italian ryegrass (Italian ryegrass [4]): 3 (Herbicidal rate of 40% or more and less than 70%); herbicidal effect grade, O: lambsquarters (lambsquarters; [9]): 5 (Herbicidal rate of 90% or more (almost completely withered)); herbicidal effect grade, J: blackgrass (blackgrass; [9]): 3 (Herbicidal rate of 40% or more and less than 70%); herbicidal effect rating, I: wild oat (wild oat [5]): 0 (Herbicidal rate of 5% or less (almost no effect)); herbicidal effect grade, H: barnyard grass (barnyard grass [6]; [9]): 3 (Herbicidal rate of 40% or more and less than 70%); herbicidal effect grade, K: Italian ryegrass (Italian ryegrass [7]; [9]): 5 (Herbicidal rate of 90% or more (almost completely withered)); herbicidal effect grade, G: green foxtail (green foxtail; [9]): 4 (Herbicidal rate of 70% or more and less than 90%); herbicidal effect grade, R: persian speedwell (persian speedwell; [9]): 5 (Herbicidal rate of 90% or more (almost completely withered)); herbicidal effect grade, F: southern crabgrass (southern crabgrass; [9]): 0 (Herbicidal rate of 5% or less (almost no effect)); herbicidal effect rating, N: redroot pigweed (redroot pigweed [8]): 4 (Herbicidal rate of 70% or more and less than 90%); herbicidal effect grade, L: windgrass (windgrass; [9]): 0 (Herbicidal rate of 5% or less (almost no effect)); herbicidal effect on D (Chinese sprangletop), rating 0-5 (Chinese sprangletop): 0 (Herbicidal rate of 5% or less (almost no effect))
2 | CCCC(=O)Oc1c(C)nn(C)c(=O)c1-c1c(-c2ccc(C(C)C)cc2)sc2cc(F)c(F)cc12 [5-006] | 3 (Herbicidal rate of 40% or more and less than 70%) | 4 (Herbicidal rate of 70% or more and less than 90%) | 3 (Herbicidal rate of 40% or more and less than 70%) | 4 (Herbicidal rate of 70% or more and less than 90%) | 3 (Herbicidal rate of 40% or more and less than 70%) | 0 (Herbicidal rate of 5% or less (almost no effect)) | 3 (Herbicidal rate of 40% or more and less than 70%) | 0 (Herbicidal rate of 5% or less (almost no effect)) | 0 (Herbicidal rate of 5% or less (almost no effect)) | 0 (Herbicidal rate of 5% or less (almost no effect)) | 0 (Herbicidal rate of 5% or less (almost no effect)) | 1 (Herbicidal rate of 5% or more and less than 20%) | 0 (Herbicidal rate of 5% or less (almost no effect)) | 0 (Herbicidal rate of 5% or less (almost no effect)) | 1 (Herbicidal rate of 5% or more and less than 20%) | 
3 | Cc1nn(C)c(=O)c(-c2c(-c3ccc(C#N)cc3)sc3cc(Cl)c(Cl)cc23)c1O [5-049] | 0 (Herbicidal rate of 5% or less (almost no effect)) | 0 (Herbicidal rate of 5% or less (almost no effect)) | 1 (Herbicidal rate of 5% or more and less than 20%) | 3 (Herbicidal rate of 40% or more and less than 70%) | 5 (Herbicidal rate of 90% or more (almost completely withered)) | 0 (Herbicidal rate of 5% or less (almost no effect)) | 4 (Herbicidal rate of 70% or more and less than 90%) | 0 (Herbicidal rate of 5% or less (almost no effect)) | 0 (Herbicidal rate of 5% or less (almost no effect)) | 0 (Herbicidal rate of 5% or less (almost no effect)) | 2 (Herbicidal rate of 20% or more and less than 40%) | 0 (Herbicidal rate of 5% or less (almost no effect)) | 0 (Herbicidal rate of 5% or less (almost no effect)) | 3 (Herbicidal rate of 40% or more and less than 70%) | 0 (Herbicidal rate of 5% or less (almost no effect)) | 

Reference: patent US20230085307A1, “PYRIDAZINONE COMPOUND AND HERBICIDE” (NISSAN CHEMICAL CORPORATION, priority 2019, published 2023)
